# From patent EP3064205A1, “Therapeutic use of isomeric forms of 2-(4-chlorophenyl)quinolin-4-yl)(piperidin-2-yl)methanol” (Glionova AB, priority 2015, dated 2016)
# Where two headings read alike, the source gives them in different places.
# Experiments:
# Assay in all cases: 3D clonogenic assay (PDX)
# Type in all cases: cell-based, human
# [1] = test system: PAXF 2033; details: PAXF 2033, Pancreas; for IC50: Homo sapiens
# In short: (§1)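 PDX tumors from NMRI nu/nu mice were enzymatically dissociated into cell suspensions and plated in soft agar. After 24 h, cells received continuous exposure to 10 concentrations (50 µM down to 0.0015 µM, in duplicate) for 8–13 days at 37 °C. Colonies >50 µm were stained with INT tetrazolium and counted by automated imaging; IC50 values came from 4-parameter fits.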
# [2] = test system: LXFL 1121; details: LXFL 1121, Lung Large Cell; for IC50: Homo sapiens
# In short: as §1
# [3] = test system: HNXF 1853; details: HNXF 1853, Head and Neck; for IC50: Homo sapiens
# In short: as §1
# [4] = test system: PAXF 2116; details: PAXF 2116, Pancreas; for IC50: Homo sapiens
# In short: as §1
# [5] = test system: MEXF 622; details: MEXF 622, Melanoma; for IC50: Homo sapiens
# In short: as §1
# [6] = test system: CXF 1103; details: CXF 1103, Colorectal; for IC50: Homo sapiens, CXF1103
# In short: as §1
# [7] = test system: CXF 2025; details: CXF 2025, Colorectal; for IC50: Homo sapiens
# In short: as §1
# [8] = test system: BXF 439; details: BXF 439, Bladder; for IC50: Homo sapiens
# In short: as §1
# [9] = test system: MEXF 1765; details: MEXF 1765, Melanoma; for IC50: Homo sapiens
# In short: as §1
# [10] = test system: CXF 1783; details: CXF 1783, Colorectal; for IC50: Homo sapiens
# In short: as §1
# [11] = test system: OVXF 1353; details: OVXF 1353, Ovarian; for IC50: Homo sapiens
# In short: as §1
# [12] = test system: HNXF 1842; details: HNXF 1842, Head and Neck; for IC50: Homo sapiens
# In short: as §1
smiles,measurement,setting,value
"O[C@H](c1cc(-c2ccc(Cl)cc2)nc2ccccc12)[C@@H]1CCCCN1 [S1, (R)-(2-(4-chlorophenyl)quinolin-4-yl)((S)-piperidin-2-yl)methanol]",IC50,[1]; read-out: abs. IC50,9.19 µM
same,IC50,[1]; read-out: rel. IC50,8.89 µM
same,b (bottom plateau of concentration-effect curve),[1],27
same,t (top plateau of concentration-effect curve),[1],110
same,IC50,[2]; read-out: abs. IC50,8.66 µM
same,IC50,[2]; read-out: rel. IC50,8.61 µM
same,b (bottom plateau of concentration-effect curve),[2],9
same,t (top plateau of concentration-effect curve),[2],101
same,b (bottom plateau of concentration-effect curve),[3],50
same,t (top plateau of concentration-effect curve),[3],106
same,IC50,[3]; read-out: abs. IC50,50 µM
same,IC50,[3]; read-out: rel. IC50,8.77 µM
same,IC50,[4]; read-out: abs. IC50,9.16 µM
same,IC50,[4]; read-out: rel. IC50,8.85 µM
same,b (bottom plateau of concentration-effect curve),[4],32
same,t (top plateau of concentration-effect curve),[4],112
same,IC50,[5]; read-out: abs. IC50,9.21 µM
same,IC50,[5]; read-out: rel. IC50,9.14 µM
same,b (bottom plateau of concentration-effect curve),[5],21
same,t (top plateau of concentration-effect curve),[5],86
same,b (bottom plateau of concentration-effect curve),[6],47
same,t (top plateau of concentration-effect curve),[6],99
same,IC50,[6]; read-out: abs. IC50,11.5 µM
same,IC50,[6]; read-out: rel. IC50,6.47 µM
same,b (bottom plateau of concentration-effect curve),[7],33
same,t (top plateau of concentration-effect curve),[7],97
same,IC50,[7]; read-out: abs. IC50,8.87 µM
same,IC50,[7]; read-out: rel. IC50,8.61 µM
same,b (bottom plateau of concentration-effect curve),[8],34
same,t (top plateau of concentration-effect curve),[8],95
same,IC50,[8]; read-out: abs. IC50,14 µM
same,IC50,[8]; read-out: rel. IC50,12.8 µM
same,IC50,[9]; read-out: abs. IC50,8.58 µM
same,IC50,[9]; read-out: rel. IC50,8.53 µM
same,b (bottom plateau of concentration-effect curve),[9],23
same,t (top plateau of concentration-effect curve),[9],84
same,b (bottom plateau of concentration-effect curve),[10],42
same,t (top plateau of concentration-effect curve),[10],100
same,IC50,[10]; read-out: abs. IC50,9.26 µM
same,IC50,[10]; read-out: rel. IC50,8.81 µM
same,IC50,[11]; read-out: abs. IC50,4.91 µM
same,IC50,[11]; read-out: rel. IC50,4.72 µM
same,b (bottom plateau of concentration-effect curve),[11],23
same,t (top plateau of concentration-effect curve),[11],101
same,b (bottom plateau of concentration-effect curve),[12],15
same,t (top plateau of concentration-effect curve),[12],77
same,IC50,[12]; read-out: abs. IC50,5.4 µM
same,IC50,[12]; read-out: rel. IC50,5.53 µM
